What was measured:
Assay in all cases: Greenhouse whole-plant imazapir dose response (Example 8)
Type in all cases: in vivo, Helianthus annuus
[1] = system: sunflower GIM 5-6 (Restorer Line, A122T); conditions: GIM5-6, 14 DAT
Experimental: (§1) A greenhouse study was conducted to quantify and contrast the imazapir sensitivity of the mutants A122T and A205V in different genetic backgrounds at the whole plant level in sunflower. Seeds of the different sunflower lines that were used in this study were obtained under field conditions.
(§2) Seeds were sown in Petri dishes and, after germination, plantlets were transplanted to pots of 10 cm of diameter in a potting media consisting of equal parts of vermiculite, soil and sand. Plants were grown in a greenhouse under natural light conditions supplemented with 400 W sodium halide lamps to provide a 16 hrs daylength. Day/night temperatures were 25 and 20° C., respectively. At the V2 stage 10 plants of each genotype were randomly assigned to each treatment consisting of […] imazapir doses (0, 40, 80, 160, 240, 320, 400 and 480 g ai/ha), and a zero-time biomass determination. Experiment was arranged as a randomized block design with a full factorial (sunflower line×treatment) arrangement of treatments and 10 replications.
(§3) On the day of herbicide application ten plants of each genotype were cut at the cotyledonal node and dried at 60° C. for 48 hrs zero-time for dried weight determination. […] Height was determined as the distance between the cotyledonal node and the apex of each plant. For root biomass determination, each plant was taken from the pot and the potting media was washed out from the roots. Above ground biomass data from each line were converted to biomass accumulation after application by subtracting the appropriate average zero-time biomass from each sample. Dry biomass data were converted to percentages of the untreated control plants within each line to allow direct comparisons between groups.

[2] = system: sunflower GM40 (Manteiner Line, A122T); conditions: 14 DAT
Experimental: as §1, §2, §3

[3] = system: sunflower IR79 (Restorer Line, A205V); conditions: 14 DAT
Experimental: as §1, §2, §3

[4] = system: sunflower TH10 (Restorer Line, A205V); conditions: 14 DAT
Experimental: as §1, §2, §3

[5] = system: sunflower TH11 (Hybrid, A122T); conditions: 14 DAT
Experimental: as §1, §2, §3

CC(C)C1(C)N=C(c2ncccc2C(=O)O)NC1=O (centres unmarked) [imazapir, imazapyr]
biomass accumulation (dry biomass, % of untreated) ([1]; 0.5× (40 g ai/ha)): 100.0% | plant height (% of untreated) ([1]; 0.5× (40 g ai/ha)): 100.0% | root dry weight (% of untreated) ([1]; 0.5× (40 g ai/ha)): 100% | biomass accumulation (dry biomass, % of untreated) ([1]; 1× (80 g ai/ha)): 96.4% | plant height (% of untreated) ([1]; 1× (80 g ai/ha)): 100.0% | root dry weight (% of untreated) ([1]; 1× (80 g ai/ha)): 88.0% | biomass accumulation (dry biomass, % of untreated) ([1]; 2× (160 g ai/ha)): 97.7% | plant height (% of untreated) ([1]; 2× (160 g ai/ha)): 99.1% | root dry weight (% of untreated) ([1]; 2× (160 g ai/ha)): 90.0% | biomass accumulation (dry biomass, % of untreated) ([1]; 3× (240 g ai/ha)): 95.8% | plant height (% of untreated) ([1]; 3× (240 g ai/ha)): 98.1% | root dry weight (% of untreated) ([1]; 3× (240 g ai/ha)): 98.0% | biomass accumulation (dry biomass, % of untreated) ([1]; 4× (320 g ai/ha)): 90.8% | plant height (% of untreated) ([1]; 4× (320 g ai/ha)): 91.0% | root dry weight (% of untreated) ([1]; 4× (320 g ai/ha)): 80.0% | biomass accumulation (dry biomass, % of untreated) ([1]; 5× (400 g ai/ha)): 81.9% | plant height (% of untreated) ([1]; 5× (400 g ai/ha)): 94.3% | root dry weight (% of untreated) ([1]; 5× (400 g ai/ha)): 80.0% | biomass accumulation (dry biomass, % of untreated) ([1]; 6× (480 g ai/ha)): 78.0% | plant height (% of untreated) ([1]; 6× (480 g ai/ha)): 85.8% | root dry weight (% of untreated) ([1]; 6× (480 g ai/ha)): 65.8% | biomass accumulation (dry biomass, % of untreated) ([2]; 0.5× (40 g ai/ha)): 96.5% | plant height (% of untreated) ([2]; 0.5× (40 g ai/ha)): 99.6% | root dry weight (% of untreated) ([2]; 0.5× (40 g ai/ha)): 100% | biomass accumulation (dry biomass, % of untreated) ([2]; 1× (80 g ai/ha)): 94.1% | plant height (% of untreated) ([2]; 1× (80 g ai/ha)): 97.4% | root dry weight (% of untreated) ([2]; 1× (80 g ai/ha)): 100% | biomass accumulation (dry biomass, % of untreated) ([2]; 2× (160 g ai/ha)): 97.6% | plant height (% of untreated) ([2]; 2× (160 g ai/ha)): 95.2% | root dry weight (% of untreated) ([2]; 2× (160 g ai/ha)): 100% | biomass accumulation (dry biomass, % of untreated) ([2]; 3× (240 g ai/ha)): 95.8% | plant height (% of untreated) ([2]; 3× (240 g ai/ha)): 93.0% | root dry weight (% of untreated) ([2]; 3× (240 g ai/ha)): 92.2% | biomass accumulation (dry biomass, % of untreated) ([2]; 4× (320 g ai/ha)): 88.3% | plant height (% of untreated) ([2]; 4× (320 g ai/ha)): 93.0% | root dry weight (% of untreated) ([2]; 4× (320 g ai/ha)): 96.1% | biomass accumulation (dry biomass, % of untreated) ([2]; 5× (400 g ai/ha)): 85.6% | plant height (% of untreated) ([2]; 5× (400 g ai/ha)): 93.9% | root dry weight (% of untreated) ([2]; 5× (400 g ai/ha)): 84.2% | biomass accumulation (dry biomass, % of untreated) ([2]; 6× (480 g ai/ha)): 76.8% | plant height (% of untreated) ([2]; 6× (480 g ai/ha)): 84.3% | root dry weight (% of untreated) ([2]; 6× (480 g ai/ha)): 74.3% | biomass accumulation (dry biomass, % of untreated) ([3]; 0.5× (40 g ai/ha)): 94.4% | plant height (% of untreated) ([3]; 0.5× (40 g ai/ha)): 92.8% | root dry weight (% of untreated) ([3]; 0.5× (40 g ai/ha)): 98.6% | biomass accumulation (dry biomass, % of untreated) ([3]; 1× (80 g ai/ha)): 74.0% | plant height (% of untreated) ([3]; 1× (80 g ai/ha)): 80.9% | root dry weight (% of untreated) ([3]; 1× (80 g ai/ha)): 53.4% | biomass accumulation (dry biomass, % of untreated) ([3]; 2× (160 g ai/ha)): 67.7% | plant height (% of untreated) ([3]; 2× (160 g ai/ha)): 74.9% | root dry weight (% of untreated) ([3]; 2× (160 g ai/ha)): 42.5% | biomass accumulation (dry biomass, % of untreated) ([3]; 3× (240 g ai/ha)): 49.1% | plant height (% of untreated) ([3]; 3× (240 g ai/ha)): 55.7% | root dry weight (% of untreated) ([3]; 3× (240 g ai/ha)): 38.4% | biomass accumulation (dry biomass, % of untreated) ([3]; 4× (320 g ai/ha)): 44.5% | plant height (% of untreated) ([3]; 4× (320 g ai/ha)): 52.8% | root dry weight (% of untreated) ([3]; 4× (320 g ai/ha)): 31.5% | biomass accumulation (dry biomass, % of untreated) ([3]; 5× (400 g ai/ha)): 40.1% | plant height (% of untreated) ([3]; 5× (400 g ai/ha)): 41.7% | root dry weight (% of untreated) ([3]; 5× (400 g ai/ha)): 23.3% | biomass accumulation (dry biomass, % of untreated) ([3]; 6× (480 g ai/ha)): 35.3% | plant height (% of untreated) ([3]; 6× (480 g ai/ha)): 33.2% | root dry weight (% of untreated) ([3]; 6× (480 g ai/ha)): 21.9% | Phytotoxicity Index ([4]; 0.5× (40 g ai/ha)): 0 | biomass accumulation (dry biomass, % of untreated) ([4]; 0.5× (40 g ai/ha)): 99.2% | plant height (% of untreated) ([4]; 0.5× (40 g ai/ha)): 99.2% | root dry weight (% of untreated) ([4]; 0.5× (40 g ai/ha)): 90.3% | Phytotoxicity Index ([4]; 1× (80 g ai/ha)): 0 | biomass accumulation (dry biomass, % of untreated) ([4]; 1× (80 g ai/ha)): 85.0% | plant height (% of untreated) ([4]; 1× (80 g ai/ha)): 98.1% | root dry weight (% of untreated) ([4]; 1× (80 g ai/ha)): 69.9% | Phytotoxicity Index ([4]; 2× (160 g ai/ha)): 3.1 | biomass accumulation (dry biomass, % of untreated) ([4]; 2× (160 g ai/ha)): 58.1% | plant height (% of untreated) ([4]; 2× (160 g ai/ha)): 63.6% | root dry weight (% of untreated) ([4]; 2× (160 g ai/ha)): 41.3% | Phytotoxicity Index ([4]; 3× (240 g ai/ha)): 3.9 | biomass accumulation (dry biomass, % of untreated) ([4]; 3× (240 g ai/ha)): 48.1% | plant height (% of untreated) ([4]; 3× (240 g ai/ha)): 51.9% | root dry weight (% of untreated) ([4]; 3× (240 g ai/ha)): 42.8% | Phytotoxicity Index ([4]; 4× (320 g ai/ha)): 5.9 | biomass accumulation (dry biomass, % of untreated) ([4]; 4× (320 g ai/ha)): 28.8% | plant height (% of untreated) ([4]; 4× (320 g ai/ha)): 27.5% | root dry weight (% of untreated) ([4]; 4× (320 g ai/ha)): 22.3% | Phytotoxicity Index ([4]; 5× (400 g ai/ha)): 6.9 | biomass accumulation (dry biomass, % of untreated) ([4]; 5× (400 g ai/ha)): 27.4% | plant height (% of untreated) ([4]; 5× (400 g ai/ha)): 28.0% | root dry weight (% of untreated) ([4]; 5× (400 g ai/ha)): 22.7% | Phytotoxicity Index ([4]; 6× (480 g ai/ha)): 6.7 | biomass accumulation (dry biomass, % of untreated) ([4]; 6× (480 g ai/ha)): 24.9% | plant height (% of untreated) ([4]; 6× (480 g ai/ha)): 29.3% | root dry weight (% of untreated) ([4]; 6× (480 g ai/ha)): 16.4% | Phytotoxicity Index ([5]; 0.5× (40 g ai/ha)): 0.4 | biomass accumulation (dry biomass, % of untreated) ([5]; 0.5× (40 g ai/ha)): 96.6% | plant height (% of untreated) ([5]; 0.5× (40 g ai/ha)): 100.4% | root dry weight (% of untreated) ([5]; 0.5× (40 g ai/ha)): 100% | Phytotoxicity Index ([5]; 1× (80 g ai/ha)): 0.4 | biomass accumulation (dry biomass, % of untreated) ([5]; 1× (80 g ai/ha)): 93.9% | plant height (% of untreated) ([5]; 1× (80 g ai/ha)): 99.9% | root dry weight (% of untreated) ([5]; 1× (80 g ai/ha)): 99.0% | Phytotoxicity Index ([5]; 2× (160 g ai/ha)): 0.4 | biomass accumulation (dry biomass, % of untreated) ([5]; 2× (160 g ai/ha)): 81.6% | plant height (% of untreated) ([5]; 2× (160 g ai/ha)): 92.0% | root dry weight (% of untreated) ([5]; 2× (160 g ai/ha)): 86.1% | Phytotoxicity Index ([5]; 3× (240 g ai/ha)): 0.5 | biomass accumulation (dry biomass, % of untreated) ([5]; 3× (240 g ai/ha)): 75.8% | plant height (% of untreated) ([5]; 3× (240 g ai/ha)): 90.5% | root dry weight (% of untreated) ([5]; 3× (240 g ai/ha)): 81.5% | Phytotoxicity Index ([5]; 4× (320 g ai/ha)): 1.0 | biomass accumulation (dry biomass, % of untreated) ([5]; 4× (320 g ai/ha)): 75.0% | plant height (% of untreated) ([5]; 4× (320 g ai/ha)): 90.8% | root dry weight (% of untreated) ([5]; 4× (320 g ai/ha)): 72.6% | Phytotoxicity Index ([5]; 5× (400 g ai/ha)): 2.0 | biomass accumulation (dry biomass, % of untreated) ([5]; 5× (400 g ai/ha)): 60.1% | plant height (% of untreated) ([5]; 5× (400 g ai/ha)): 84.4% | root dry weight (% of untreated) ([5]; 5× (400 g ai/ha)): 68.9% | Phytotoxicity Index ([5]; 6× (480 g ai/ha)): 2.5 | biomass accumulation (dry biomass, % of untreated) ([5]; 6× (480 g ai/ha)): 59.6% | plant height (% of untreated) ([5]; 6× (480 g ai/ha)): 84.4% | root dry weight (% of untreated) ([5]; 6× (480 g ai/ha)): 45.3%
